This is an account of results in ChEMBL document CHEMBL5137126, “Alliacane-Type Secondary Metabolites from Submerged Cultures of the Basidiomycete Clitocybe nebularis” (J Nat Prod, 2022).

One data set has as its system PC-3. In words: Cytotoxicity against human PC-3 cells assessed as inhibition of cell growth incubated for 5 days by MTT assay. The class given is functional, cell-based. The settings on record: PC-3, 120 h.
A further data set deals with SK-OV-3. The experiment in a line: Cytotoxicity against human SK-OV-3 cells assessed as inhibition of cell growth incubated for 5 days by MTT assay. The class given is functional, cell-based. As to conditions: SK-OV-3, 120 h. In general terms: Formazan colour is commonly taken as a measure of viable cells.
Data set [1] in a line: Cytotoxicity against mouse L929 cells assessed as inhibition of cell growth incubated for 5 days by MTT assay. The class given is toxicity, cell-based.
The subject of another data set is A-431. In words: Cytotoxicity against human A-431 cells assessed as inhibition of cell growth incubated for 5 days by MTT assay. The settings on record: A-431, 120 h. The class given is functional, cell-based.
Another data set relates to KB 3-1. The experiment in a line: Cytotoxicity against human KB 3-1 cells assessed as inhibition of cell growth incubated for 5 days by MTT assay. The class given is functional, cell-based. As to conditions: KB 3-1, 120 h.
The next data set deals with A549. In words: Cytotoxicity against human A549 cells assessed as inhibition of cell growth incubated for 5 days by MTT assay. The class given is functional, cell-based. As to conditions: A549, 120 h.
Another data set has as its system MCF7. The experiment in a line: Cytotoxicity against human MCF7 cells assessed as inhibition of cell growth incubated for 5 days by MTT assay. The class given is functional, cell-based. As to conditions: MCF7, 120 h.
Another data set relates to Rhodotorula glutinis. The experiment in a line: Antifungal activity against Rhodotorula glutinis DSM10134 assessed as inhibition of fungal growth incubated for 48 hrs by serial dilution method. The class given is functional.
For another data set, the system named is Wickerhamomyces anomalus. In words: Antifungal activity against Pichia anomala DSM6766 assessed as inhibition of fungal growth incubated overnight by serial dilution method. The class given is functional.
The next data set has as its system Bacillus subtilis. In words: Antibacterial activity against Bacillus subtilis DSM 10 assessed as inhibition of bacterial growth incubated overnight by serial dilution method. The class given is functional.
The next data set concerns Mucor hiemalis. In words: Antifungal activity against Mucor hiemalis DSM2656 assessed as inhibition of fungal growth incubated overnight by serial dilution method. The class given is functional.
In another data set the test system is Candida albicans. In words: Antifungal activity against Candida albicans DSM1665 assessed as inhibition of fungal growth incubated overnight by serial dilution method. The class given is functional.
For data set [2], the system named is Schizosaccharomyces pombe. The experiment in a line: Antifungal activity against Schizosaccharomyces pombe DSM70572 assessed as inhibition of fungal growth incubated for 48 hrs by serial dilution method. The class given is functional.
For the next data set, the system named is L929. In words: Cytotoxicity against mouse L929 cells assessed as inhibition of cell growth at 0.0006 to 0.037 ug/ml incubated for 5 days by MTT assay. The class given is toxicity, cell-based. As to conditions: l929, 120 h, dose 0.0006-0.037 µg/ml, time 5 day.

Converted amounts (≈) assume the structure as drawn.

Consider `C/C(=C\c1csc(C)n1)[C@H]1C[C@H]2O[C@@]2(C)CCC[C@H](C)[C@@H](O)[C@@H](C)C(=O)C(C)(C)[C@H](O)CC(=O)O1`, for which the IC50 – broadly, the concentration that inhibits the measured activity by half – with PC-3 is 0.003 µM; in the data set on SK-OV-3, 0.0075 µM; with A-431, 0.0031 µM; in the data set with KB 3-1 it was 0.0028 µM; in the data set with A549 it was 0.0034 µM; with MCF7 it was 0.0027 µM. Also, the 50% inhibitory concentration (IC50) at 5 days in [1] was determined as 0.001 µM.
`C=C(C(=O)O)[C@]12O[C@]13CC(C)(C)C[C@@H]3[C@H](C)[C@H](O)C2=O`: the IC50 in the data set with PC-3 is 36 µM; in the data set with SK-OV-3, 20 µM; in the data set on A-431, 7 µM; in the data set on KB 3-1, 18 µM; with A549, 53 µM; with MCF7 it was 8 µM. Moreover, the half-maximal inhibitory concentration (IC50) at 5 days in data set [1] was found to be 22 µM.
For `C[C@@H]1C(=O)c2[nH]cc(CO)c2C2=CC(C)(C)C[C@@H]21`, in data set [1], the IC50 at 5 days came out at 68 µM. In addition, the IC50 with KB 3-1 worked out at 47 µM. For the same compound, in the data set on Rhodotorula glutinis, the minimum inhibitory concentration (MIC) (usually the smallest concentration in the dilution series that meets the test's criterion for growth inhibition) was found to be 66.6 µg/mL (≈ 271 µM).
As to `Cc1cc2[nH]cc(C=O)c2c2c1CC(C)(C)C2`, the minimal inhibitory concentration (MIC) in the data set with Wickerhamomyces anomalus (Hansenula anomala) turned out to be 33.3 µg/mL (≈ 146 µM); with Bacillus subtilis it was 66.6 µg/mL (≈ 293 µM); in the data set with Mucor hiemalis it was 16.6 µg/mL (≈ 73 µM); in the data set with Candida albicans it was 66.6 µg/mL (≈ 293 µM); in the data set on Rhodotorula glutinis, 4.2 µg/mL (≈ 18.5 µM); in data set [2] it was 33.3 µg/mL (≈ 146 µM). In data set [1], the half-maximal inhibitory concentration (IC50) at 5 days came to 41 µM. The IC50 with KB 3-1 was determined as 21 µM.
Regarding `CN(C)[C@@H]1C(O)=C(C(N)=O)C(=O)[C@@]2(O)C(O)=C3C(=O)c4c(O)cccc4[C@@](C)(O)[C@H]3[C@H](O)[C@@H]12` [OXYTETRACYCLINE], in the data set with Bacillus subtilis, the MIC was determined as 9.2 µg/mL (≈ 20 µM).
In the case of `C[C@@H]1C(=O)c2occ(CO)c2[C@]2(O)CC(C)(C)C[C@H]12`, in the data set with L929, the Activity result is reported as “Non-Toxic”.
For the compound NYSTATIN, the minimum inhibitory concentration (MIC) in the data set on Wickerhamomyces anomalus was 4.6 µg/mL; in the data set on Mucor hiemalis, 9.2 µg/mL; with Rhodotorula glutinis it was 1 µg/mL; in data set [2], 4.2 µg/mL.
`C=C(C(=O)O)C1=C2CC(C)(C)C[C@@H]2[C@H](C)CC1=O`: the Activity result in the data set with L929 is on record as “Non-Toxic”.
